The values below come from patent publication US20230057930A1, “COMPOSITIONS FOR ALLEVIATING THE SYMPTOMS OF LOW ANTERIOR RESECTION SYNDROME BY TOPICAL ADMINISTRATION TO THE NEORECTUM” (RepoCeuticals A/S, priority 2020, published 2023).

Data set [1] can be described thus: Storage stability of melatonin in aqueous solution / formulation. In kind it is physicochemical. Particulars: shelf life. The method, then: Dimethyl sulfoxide (DMSO): DMSO ((CH3)2SO), molecular weight 78.1 g/mol, is a colorless polar aprotic solvent for both polar and nonpolar compounds and is completely miscible with water and a wide range of organic solvents. It is well known as a solvent or solubilizer for melatonin, as are also ethanol, glycerin and propylene glycol. […] On the other hand, the solubility of melatonin in water is limited to approximately 2 g/L at 20° C. […] DMSO penetrates the skin and other epithelia without damaging them and can carry other compounds dissolved in it into the underlying cells and tissues. DMSO has been used in human subjects as a topical analgesic, a vehicle for the topical application of pharmaceuticals e.g. as a component of a transdermal drug delivery systems, as an anti-inflammatory agent, and as an antioxidant. It is also used as a cryopreservative for sperm and oocytes in fertility treatments as well as for stem cells and modified lymphocytes for cellular therapies for cancer. […] While DMSO has been examined for the treatment of numerous conditions and ailments, its only use approved by the U.S. Food and Drug Administration (FDA) has been for the symptomatic treatment of interstitial cystitis, in which 50% (w/w) aqueous DMSO is instilled into the urinary bladder. […]

The subject of the next data set is human subjects. The following applies: cited from earlier work.
For a further data set, the system named is rats. The following applies: rat, cited from earlier work.
The conditions of data set [2]: cited from earlier work.
The subject of another data set is patients with LARS. Particulars: cited from earlier work.

Turning to `C[S+](C)[O-]` [DMSO, Dimethyl sulfoxide], the “effect on decomposition of melatonin in aqueous solutions” value in data set [1] is “prevents the decomposition of melatonin”. Moreover, the “adverse effects in patients” value in the data set on human subjects (intravenously, doses up to 1 g/kg/day) is given as “without evidence of adverse effects”. Besides, the “median 50% lethal oral dose (LD50 oral) relative to ethanol” value with rats (oral) is recorded as “twice as high as that of ethanol”.

As for `COc1ccc2[nH]cc(CCNC(C)=O)c2c1` [Melatonin, N-acetyl-5-methoxytryptamine], the solubility in water entry in data set [2] (20° C.) was “approximately 2 g/L”. For the same compound, in data set [2] (room temperature (20 or 25° C.)), the “solubility in DMSO” value was no less than 232 mg/mL. Further, the “adverse effects in human subjects” value in the data set with human subjects (gram amounts oral per day for prolonged periods) is “without apparent adverse effects”. Besides, the “50% lethal oral dose (LD50 oral)” value in the data set with rats (in vivo, po) is greater than 3200 mg/kg.

With `Cn1cc(C(=O)[C@@H]2CCc3nc[nH]c3C2)c2ccccc21` [ramosetron], in the data set on patients with LARS, the “effect on symptoms of LARS” value was “alleviated the symptoms of urgency and reduced the number of bowel movements per day”.

Turning to glycofurol, in data set [1], the “effect on decomposition of melatonin in aqueous solutions” value is “reduces the decomposition of melatonin”.
